Measured values published in US10576085B2, “Substituted aminopurine compounds, compositions thereof, and methods of treatment therewith” (Signal Pharmaceuticals, LLC, priority 2016, dated 2020).

Tested on: cancer cell lines of Table 2
Assay: Multiplexed cytotoxicity assay: cell proliferation (relative cell count IC50, GI50)
Type: cell-based
Procedure: Cells are grown in RPMI1640, 10% FBS, 2 mM L-alanyl-L-Glutamine, 1 mM Na pyruvate or a special medium in a humidified atmosphere of 5% CO2 at 37° C. Cells are seeded into 384-well plates and incubated in a humidified atmosphere of 5% CO2 at 37° C. Compounds are added 24 h post cell seeding. At the same time, a time zero untreated cell plate is generated. After a 72 hour incubation period, cells are fixed and stained with fluorescently labeled antibodies and nuclear dye to allow visualization of nuclei, apoptotic cells and mitotic cells. Apoptotic cells are detected using an anti-active caspase-3 antibody. Mitotic cells are detected using an anti phospho-histone-3 antibody. Compounds are serially diluted 3.16-fold and assayed over 10 concentrations in a final assay concentration of 0.1% DMSO from the highest test concentration of 10 μM. Automated fluorescence microscopy was carried out using a Molecular Devices ImageXpress Micro XL high-content imager, and images are collected with a 4× objective.
(§1) Sixteen-bit TIFF images are acquired and analyzed with MetaXpress 5.1.0.41 software. Cell proliferation is measured by the signal intensity of the incorporated nuclear dye. The cell proliferation assay output is referred to as the relative cell count. To determine the cell proliferation end point, the cell proliferation data output is transformed to percentage of control (POC) using the following formula: POC=relative cell count(compound wells)/relative cell count(vehicle wells)×100
(§2) GI50 is the concentration needed to reduce the observed growth by half. This is the concentration that inhibits the growth to the level midway between growth in untreated cells and the number of cells seeded in the well (Time zero value). The IC50 values are calculated using nonlinear regression to fit data to a sigmoidal 4 point, 4 parameter One-Site dose response model, where: y(fit)=A+[(B−A)/(1+((C/x)^D))].
In Another Experiment, Cells were Grown in RPMI1640, 10% FBS, 2 mM L-alanyl-L-Glutamine, 1 mM Na pyruvate or a special medium in a humidified atmosphere of 5% CO2 at 37° C. Cells were seeded into 384-well plates and incubated in a humidified atmosphere of 5% CO2 at 37° C. Compounds were added 24 h post cell seeding. At the same time, a time zero untreated cell plate was generated. After a 72 hour incubation period, cells were fixed and stained with fluorescently labeled antibodies and nuclear dye to allow visualization of nuclei, apoptotic cells and mitotic cells. Apoptotic cells were detected using an anti-active caspase-3 antibody. Mitotic cells were detected using an anti phospho-histone-3 antibody. Compounds were serially diluted 3.16-fold and assayed over 10 concentrations in a final assay concentration of 0.1% DMSO from the highest test concentration of 10 μM. Automated fluorescence microscopy was carried out using a Molecular Devices ImageXpress Micro XL high-content imager, and images were collected with a 4× objective.
as §1, with “images were” for “images are”, “proliferation was” for “proliferation is”, “output was” for “output is”
as §2, with “GI50 refers to” for “GI50 is”, “This corresponds to” for “This is”, “values were” for “values are”

[1] = Homo sapiens, A204, A204, Soft Tissue, Sarcoma
[2] = Homo sapiens, A704, A704, Kidney
[3] = Homo sapiens, ARH-77, ARH77, Myeloma
[4] = Homo sapiens, BT-474, BT474, Breast
[5] = Homo sapiens, BT-549, BT549, Breast
[6] = Homo sapiens, C-4-II, C4II, Female GU, Cervix
[7] = Homo sapiens, CCF-STTG1, CCFSTTG1, CNS, Glioma
[8] = Homo sapiens, CFPAC-1, CFPAC1, Pancreas
[9] = Homo sapiens, ChaGo-K-1, CHAGOK1, Lung, NSCLC
[10] = Homo sapiens, K562, K562, Leukemia
[11] = Homo sapiens, ME-180, ME180, Female GU, Ovary
[12] = Homo sapiens, NALM-6, NALM6, Leukemia
[13] = Homo sapiens, NCI-H295R, NCIH295R, Endocrine, Adrenal gland
[14] = Homo sapiens, NCI-H460, NCIH460, Lung, NSCLC
[15] = Homo sapiens, OVCAR-3, OVCAR3, Female GU, Ovary
[16] = Homo sapiens, SK-NEP-1, SKNEP1, Kidney
[17] = Homo sapiens, SK-UT-1, SKUT1, Soft Tissue, Sarcoma
[18] = Homo sapiens, SNU-16, SNU16, Stomach
[19] = Homo sapiens, SiHa, Female GU, Cervix
[20] = Homo sapiens, T98G, CNS, Glioma
[21] = KHOS-240S, KHOS240S, Soft Tissue, Osteosarcoma

Which GI50 (BC1, Lymphoma) does the source give for C[C@]1(C(N)=O)CC[C@@H](n2c(Nc3c(Cl)cc(Cl)cc3Cl)nc3cnc(N[C@@H]4CCOC[C@H]4F)nc32)CC1 [Compound 1, cis-4-[2-{[(3S,4R)-3-fluorooxan-4-yl]amino}-8-(2,4,6-trichloroanilino)-9H-purin-9-yl]-1-methyl cyclohexane-1-carboxamide] here?
The GI50 was 10 µM.

What about the IC50 (BC1, Lymphoma) of the same molecule?
Its IC50 is 10 µM.

And the GI50 (C4I, Female GU, Cervix)?
The GI50 was 10 µM.

And the IC50 (C4I, Female GU, Cervix)?
Its IC50 is 10 µM.

And the GI50 (CEM/C1, CEMC1, Leukemia)?
Its GI50 is 10 µM.

What about the IC50 (CEM/C1, CEMC1, Leukemia) of the same molecule?
The IC50 was 10 µM.

And the IC50 (CML-T1, CMLT1, Leukemia)?
Its IC50 is 10 µM.

What about the IC50 (DB, Lymphoma) of the same molecule?
The IC50 was 10 µM.

What about the IC50 (HS229T, Lung, NSCLC) of the same molecule?
Its IC50 is 10 µM.

And the IC50 (HS688AT, Skin, Melanoma)?
Its IC50 is 10 µM.

And the IC50 (HS729, Soft Tissue, Sarcoma)?
The IC50 was 10 µM.

What about the IC50 (HS821T, Soft Tissue, Sarcoma) of the same molecule?
The IC50 was 10 µM.

And the IC50 (HS888SK, Soft Tissue, Osteosarcoma)?
The IC50 was 10 µM.

What about the GI50 (HS895T, Skin, Melanoma) of the same molecule?
The GI50 was 10 µM.

And the IC50 (HS895T, Skin, Melanoma)?
The IC50 was 10 µM.

And the IC50 (HS934T, Skin, Melanoma)?
Its IC50 is 10 µM.

And the IC50 (HT, Lymphoma)?
The IC50 was 10 µM.

And the GI50 [1]?
Its GI50 is 10 µM.

And the IC50 [1]?
The IC50 was 10 µM.

What about the IC50 (Homo sapiens, A253, A253, Head and Neck) of the same molecule?
The IC50 was 10 µM.

What about the GI50 [2] of the same molecule?
The GI50 was 10 µM.

What about the IC50 [2] of the same molecule?
The IC50 was 10 µM.

What about the GI50 [3] of the same molecule?
The GI50 was 10 µM.

What about the IC50 [3] of the same molecule?
The IC50 was 10 µM.

What about the IC50 (Homo sapiens, ASPC1, ASPC1, Pancreas) of the same molecule?
Its IC50 is 10 µM.

What about the IC50 (Homo sapiens, BT-20, BT20, Breast) of the same molecule?
The IC50 was 10 µM.

What about the GI50 [4] of the same molecule?
Its GI50 is 10 µM.

And the IC50 [4]?
Its IC50 is 10 µM.

And the GI50 [5]?
The GI50 was 10 µM.

And the IC50 [5]?
Its IC50 is 10 µM.

What about the IC50 (Homo sapiens, BV-173, BV173, Leukemia) of the same molecule?
Its IC50 is 10 µM.

What about the GI50 [6] of the same molecule?
Its GI50 is 10 µM.

What about the IC50 [6] of the same molecule?
Its IC50 is 10 µM.

What about the IC50 (Homo sapiens, CAPAN-1, CAPAN1, Pancreas) of the same molecule?
Its IC50 is 10 µM.

What about the GI50 [7] of the same molecule?
The GI50 was 10 µM.

What about the IC50 [7] of the same molecule?
Its IC50 is 10 µM.

What about the GI50 [8] of the same molecule?
Its GI50 is 10 µM.

What about the IC50 [8] of the same molecule?
Its IC50 is 10 µM.

And the IC50 (Homo sapiens, COLO 320DM, COLO320DM, Colon)?
The IC50 was 10 µM.

And the IC50 (Homo sapiens, Ca-Ski, CASKI, Female GU, Ovary)?
Its IC50 is 10 µM.

What about the IC50 (Homo sapiens, Caov-3, CAOV3, Female GU, Ovary) of the same molecule?
The IC50 was 10 µM.

And the GI50 [9]?
The GI50 was 10 µM.

What about the IC50 [9] of the same molecule?
The IC50 was 10 µM.

What about the IC50 (Homo sapiens, DMS-53, DMS53, Lung, SCLC) of the same molecule?
The IC50 was 10 µM.

What about the IC50 (Homo sapiens, Daudi, Lymphoma) of the same molecule?
Its IC50 is 10 µM.

What about the IC50 (Homo sapiens, Detroit 562, DETROIT562, Head and Neck) of the same molecule?
The IC50 was 10 µM.

And the IC50 (Homo sapiens, EFM-19, EFM19, Breast)?
Its IC50 is 10 µM.

And the IC50 (Homo sapiens, HT1197, HT1197, Bladder)?
The IC50 was 10 µM.

And the GI50 [10]?
Its GI50 is 10 µM.

And the IC50 [10]?
Its IC50 is 10 µM.

What about the IC50 (Homo sapiens, MDA-MB-415, MDAMB415, Breast) of the same molecule?
Its IC50 is 10 µM.

And the IC50 (Homo sapiens, MDA-MB-436, MDAMB436, Breast)?
Its IC50 is 10 µM.

What about the GI50 [11] of the same molecule?
Its GI50 is 10 µM.

And the IC50 [11]?
The IC50 was 10 µM.

And the GI50 [12]?
The GI50 was 10 µM.

What about the IC50 [12] of the same molecule?
Its IC50 is 10 µM.

What about the IC50 (Homo sapiens, NCI-H69, NCIH69, Lung, SCLC) of the same molecule?
The IC50 was 10 µM.

What about the GI50 [13] of the same molecule?
The GI50 was 10 µM.

And the IC50 [13]?
The IC50 was 10 µM.

And the IC50 (Homo sapiens, NCI-H446, NCIH446, Lung, SCLC)?
The IC50 was 10 µM.

And the GI50 [14]?
The GI50 was 10 µM.

And the IC50 [14]?
The IC50 was 10 µM.

What about the IC50 (Homo sapiens, NCI-H596, NCIH596, Lung, NSCLC) of the same molecule?
The IC50 was 10 µM.

What about the IC50 (Homo sapiens, OE19, OE19, Head and Neck, Esophageal) of the same molecule?
The IC50 was 10 µM.

What about the GI50 [15] of the same molecule?
The GI50 was 10 µM.

And the IC50 [15]?
The IC50 was 10 µM.

And the IC50 (Homo sapiens, PFSK-1, PFSK1, CNS, Glioma)?
Its IC50 is 10 µM.

And the IC50 (Homo sapiens, Raji, Lymphoma)?
Its IC50 is 10 µM.

And the IC50 (Homo sapiens, SK-N-DZ, SKNDZ, CNS, Neuroblastoma)?
The IC50 was 10 µM.

What about the GI50 [16] of the same molecule?
The GI50 was 10 µM.

And the IC50 [16]?
Its IC50 is 10 µM.

What about the IC50 (Homo sapiens, SK-OV-3, SKOV3, Female GU, Ovary) of the same molecule?
Its IC50 is 10 µM.

And the GI50 [17]?
The GI50 was 10 µM.

What about the IC50 [17] of the same molecule?
The IC50 was 10 µM.

What about the GI50 [18] of the same molecule?
The GI50 was 10 µM.

What about the IC50 [18] of the same molecule?
The IC50 was 10 µM.

And the GI50 [19]?
The GI50 was 10 µM.

What about the IC50 [19] of the same molecule?
The IC50 was 10 µM.

What about the GI50 (Homo sapiens, T47D, Breast) of the same molecule?
The GI50 was 10 µM.

And the IC50 (Homo sapiens, T47D, Breast)?
Its IC50 is 10 µM.

What about the GI50 [20] of the same molecule?
Its GI50 is 10 µM.

And the IC50 [20]?
Its IC50 is 10 µM.

And the IC50 (Homo sapiens, U138-MG, U138MG, CNS, Glioma)?
The IC50 was 10 µM.

And the IC50 (Homo sapiens, U-118-MG, U118MG, CNS, Glioma)?
The IC50 was 10 µM.

And the GI50 (J82, Bladder)?
Its GI50 is 10 µM.

What about the IC50 (J82, Bladder) of the same molecule?
Its IC50 is 10 µM.

What about the GI50 [21] of the same molecule?
The GI50 was 10 µM.

What about the IC50 [21] of the same molecule?
Its IC50 is 10 µM.

And the GI50 (KLE, Female GU, Uterus)?
The GI50 was 10 µM.

And the IC50 (KLE, Female GU, Uterus)?
The IC50 was 10 µM.

What about the GI50 (KPL-1, KPL1, Breast) of the same molecule?
The GI50 was 10 µM.

And the IC50 (KPL-1, KPL1, Breast)?
The IC50 was 10 µM.

And the IC50 (SKPNDW, Stomach)?
The IC50 was 10 µM.

What about the IC50 (TE125T, Soft Tissue, Sarcoma) of the same molecule?
The IC50 was 10 µM.

What about the IC50 (TT, Endocrine, Thyroid) of the same molecule?
Its IC50 is 10 µM.

What about the GI50 (Y79, Eye-retinoblastoma) of the same molecule?
The GI50 was 10 µM.

And the IC50 (Y79, Eye-retinoblastoma)?
Its IC50 is 10 µM.

And the Anti-proliferative activity (variety of cancer cell lines (Table 3))?
The Anti-proliferative activity was “anti-proliferative activity”.
